Assays:
Assay type in all cases: in vivo
[1] = system: Echinochloa oryzacola Vasing.; test: Test Example 1: herbicidal activity, application before weed generation in submerged conditions; conditions: Application herbicide amount 320 g/ha; Seventeenth Table
Summary of the method: (§1)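 Rating, on a six-step scale from almost no effect (0) to almost completely withered (5), was made three weeks after pre-emergence treatment. Treatment was surface application to flooded pots at g/ha rates, with plants kept at 25° C. to 30° C.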

Monochoria vaginalis = test: as above; conditions: Application herbicide amount 320 g/ha; Seventeenth Table
Summary of the method: as §1

Scirpus juncoides = test: as above; conditions: Application herbicide amount 320 g/ha; Seventeenth Table
Summary of the method: as §1

Abutilon theophrasti = test: Test Example 4: herbicidal effect by application to foliage (diluvial soil, plastic box); conditions: application to foliage, application herbicide amount 320 g/ha
Summary of the method: (§2)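 Emulsion-formulated compound, diluted to a predetermined g/ha dose, applied by small sprayer to leaves and stems of 14-day-old seedlings grown in sterilized diluvial soil. Effect rated on 0–5 herbicidal-ratio scale three weeks on.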

Alopecurus myosuroides = test: as above; conditions: application to foliage, application herbicide amount 320 g/ha
Summary of the method: as §2

Apera spica-venti. = test: as above; conditions: application to foliage, application herbicide amount 320 g/ha
Summary of the method: as §2

Avena fatua = test: as above; conditions: application to foliage, application herbicide amount 320 g/ha
Summary of the method: as §2

Chenopodium album = test: as above; conditions: application to foliage, application herbicide amount 320 g/ha
Summary of the method: as §2

Digitaria ciliaris = test: as above; conditions: application to foliage, application herbicide amount 320 g/ha
Summary of the method: as §2

[2] = system: Echinochloa crus-galli var. crus-galli; test: as above; conditions: application to foliage, application herbicide amount 320 g/ha
Summary of the method: as §2

Galium spurium = test: as above; conditions: application to foliage, application herbicide amount 320 g/ha
Summary of the method: as §2

Lolium multiflorum Lam. = test: as above; conditions: application to foliage, application herbicide amount 320 g/ha
Summary of the method: as §2

Setaria viridis = test: as above; conditions: application to foliage, application herbicide amount 320 g/ha
Summary of the method: as §2

Veronica persica = test: as above; conditions: application to foliage, application herbicide amount 320 g/ha
Summary of the method: as §2

CSc1nnc2c(C(=O)Nc3nnc(C)o3)ccc(C(F)(F)F)n12 [1-018, N-(5-Methyl-1,3,4-oxadiazol-2-yl)-3-(methylthio)-5-(trifluoromethyl)-[1,2,4]triazol o[4,3-a]pyridine-8-carboxamide]
A: Echinochloa oryzicola Vasing. (herbicidal effect grade) [1]: 1 (Herbicidal ratio of 5% or more and less than 20%)
C: Monochoria vaginalis (herbicidal effect grade) (Monochoria vaginalis): 5 (Herbicidal ratio of 90% or more (almost completely withered))
B: Scirpus juncoides (herbicidal effect grade) (Scirpus juncoides): 3 (Herbicidal ratio of 40% or more and less than 70%)
M (Abutilon theophrasti) herbicidal effect (Abutilon theophrasti): 3 (Herbicidal ratio of 40% or more and less than 70%)
J (Alopecurus myosuroides) herbicidal effect (Alopecurus myosuroides): 0 (Herbicidal ratio of 5% or less (almost no effect))
L (Apera spica-venti.) herbicidal effect (Apera spica-venti.): 0 (Herbicidal ratio of 5% or less (almost no effect))
I (Avena fatua) herbicidal effect (Avena fatua): 0 (Herbicidal ratio of 5% or less (almost no effect))
O (Chenopodium album) herbicidal effect (Chenopodium album): 5 (Herbicidal ratio of 90% or more (almost completely withered))
F (Digitaria ciliaris) herbicidal effect (Digitaria ciliaris): 0 (Herbicidal ratio of 5% or less (almost no effect))
H (Echinochloa crus-galli var. crus-galli) herbicidal effect [2]: 1 (Herbicidal ratio of 5% or more and less than 20%)
Q (Galium spurium) herbicidal effect (Galium spurium): 0 (Herbicidal ratio of 5% or less (almost no effect))
K (Lolium multiflorum Lam.) herbicidal effect (Lolium multiflorum Lam.): 0 (Herbicidal ratio of 5% or less (almost no effect))
G (Setaria viridis) herbicidal effect (Setaria viridis): 2 (Herbicidal ratio of 20% or more and less than 40%)
R (Veronica persica) herbicidal effect (Veronica persica): 4 (Herbicidal ratio of 70% or more and less than 90%)

COCCOCc1nnc2c(C(=O)Nc3nnc(C)o3)ccc(C(F)(F)F)n12 [1-019]
A: Echinochloa oryzicola Vasing. (herbicidal effect grade) [1]: 5 (Herbicidal ratio of 90% or more (almost completely withered))
C: Monochoria vaginalis (herbicidal effect grade) (Monochoria vaginalis): 4 (Herbicidal ratio of 70% or more and less than 90%)
B: Scirpus juncoides (herbicidal effect grade) (Scirpus juncoides): 3 (Herbicidal ratio of 40% or more and less than 70%)
M (Abutilon theophrasti) herbicidal effect (Abutilon theophrasti): 4 (Herbicidal ratio of 70% or more and less than 90%)
J (Alopecurus myosuroides) herbicidal effect (Alopecurus myosuroides): 2 (Herbicidal ratio of 20% or more and less than 40%)
L (Apera spica-venti.) herbicidal effect (Apera spica-venti.): 4 (Herbicidal ratio of 70% or more and less than 90%)
I (Avena fatua) herbicidal effect (Avena fatua): 3 (Herbicidal ratio of 40% or more and less than 70%)
O (Chenopodium album) herbicidal effect (Chenopodium album): 5 (Herbicidal ratio of 90% or more (almost completely withered))
F (Digitaria ciliaris) herbicidal effect (Digitaria ciliaris): 5 (Herbicidal ratio of 90% or more (almost completely withered))
H (Echinochloa crus-galli var. crus-galli) herbicidal effect [2]: 5 (Herbicidal ratio of 90% or more (almost completely withered))
Q (Galium spurium) herbicidal effect (Galium spurium): 4 (Herbicidal ratio of 70% or more and less than 90%)
K (Lolium multiflorum Lam.) herbicidal effect (Lolium multiflorum Lam.): 2 (Herbicidal ratio of 20% or more and less than 40%)
G (Setaria viridis) herbicidal effect (Setaria viridis): 4 (Herbicidal ratio of 70% or more and less than 90%)
R (Veronica persica) herbicidal effect (Veronica persica): 4 (Herbicidal ratio of 70% or more and less than 90%)

Cc1nnc(NC(=O)c2ccc(C(F)(F)F)n3c(COCC(F)(F)F)nnc23)o1 [1-020]
A: Echinochloa oryzicola Vasing. (herbicidal effect grade) [1]: 4 (Herbicidal ratio of 70% or more and less than 90%)
C: Monochoria vaginalis (herbicidal effect grade) (Monochoria vaginalis): 2 (Herbicidal ratio of 20% or more and less than 40%)
B: Scirpus juncoides (herbicidal effect grade) (Scirpus juncoides): 3 (Herbicidal ratio of 40% or more and less than 70%)
M (Abutilon theophrasti) herbicidal effect (Abutilon theophrasti): 2 (Herbicidal ratio of 20% or more and less than 40%)
J (Alopecurus myosuroides) herbicidal effect (Alopecurus myosuroides): 1 (Herbicidal ratio of 5% or more and less than 20%)
L (Apera spica-venti.) herbicidal effect (Apera spica-venti.): 1 (Herbicidal ratio of 5% or more and less than 20%)
I (Avena fatua) herbicidal effect (Avena fatua): 1 (Herbicidal ratio of 5% or more and less than 20%)
O (Chenopodium album) herbicidal effect (Chenopodium album): 5 (Herbicidal ratio of 90% or more (almost completely withered))
F (Digitaria ciliaris) herbicidal effect (Digitaria ciliaris): 4 (Herbicidal ratio of 70% or more and less than 90%)
H (Echinochloa crus-galli var. crus-galli) herbicidal effect [2]: 5 (Herbicidal ratio of 90% or more (almost completely withered))
Q (Galium spurium) herbicidal effect (Galium spurium): 3 (Herbicidal ratio of 40% or more and less than 70%)
K (Lolium multiflorum Lam.) herbicidal effect (Lolium multiflorum Lam.): 1 (Herbicidal ratio of 5% or more and less than 20%)
G (Setaria viridis) herbicidal effect (Setaria viridis): 3 (Herbicidal ratio of 40% or more and less than 70%)
R (Veronica persica) herbicidal effect (Veronica persica): 3 (Herbicidal ratio of 40% or more and less than 70%)

CCC(C)c1nnc2c(C(=O)Nc3nnc(C)o3)ccc(C(F)(F)F)n12 (stereo not drawn) [1-021]
A: Echinochloa oryzicola Vasing. (herbicidal effect grade) [1]: 5 (Herbicidal ratio of 90% or more (almost completely withered))
C: Monochoria vaginalis (herbicidal effect grade) (Monochoria vaginalis): 4 (Herbicidal ratio of 70% or more and less than 90%)
B: Scirpus juncoides (herbicidal effect grade) (Scirpus juncoides): 4 (Herbicidal ratio of 70% or more and less than 90%)
M (Abutilon theophrasti) herbicidal effect (Abutilon theophrasti): 5 (Herbicidal ratio of 90% or more (almost completely withered))
J (Alopecurus myosuroides) herbicidal effect (Alopecurus myosuroides): 1 (Herbicidal ratio of 5% or more and less than 20%)
L (Apera spica-venti.) herbicidal effect (Apera spica-venti.): 1 (Herbicidal ratio of 5% or more and less than 20%)
I (Avena fatua) herbicidal effect (Avena fatua): 1 (Herbicidal ratio of 5% or more and less than 20%)
O (Chenopodium album) herbicidal effect (Chenopodium album): 5 (Herbicidal ratio of 90% or more (almost completely withered))
F (Digitaria ciliaris) herbicidal effect (Digitaria ciliaris): 4 (Herbicidal ratio of 70% or more and less than 90%)
H (Echinochloa crus-galli var. crus-galli) herbicidal effect [2]: 4 (Herbicidal ratio of 70% or more and less than 90%)
Q (Galium spurium) herbicidal effect (Galium spurium): 3 (Herbicidal ratio of 40% or more and less than 70%)
K (Lolium multiflorum Lam.) herbicidal effect (Lolium multiflorum Lam.): 1 (Herbicidal ratio of 5% or more and less than 20%)
G (Setaria viridis) herbicidal effect (Setaria viridis): 3 (Herbicidal ratio of 40% or more and less than 70%)
R (Veronica persica) herbicidal effect (Veronica persica): 4 (Herbicidal ratio of 70% or more and less than 90%)

Cc1cc(-c2nnc3c(C(=O)Nc4nnc(C)o4)ccc(C(F)(F)F)n23)no1 [1-022]
A: Echinochloa oryzicola Vasing. (herbicidal effect grade) [1]: 2 (Herbicidal ratio of 20% or more and less than 40%)
C: Monochoria vaginalis (herbicidal effect grade) (Monochoria vaginalis): 0 (Herbicidal ratio of 5% or less (almost no effect))
B: Scirpus juncoides (herbicidal effect grade) (Scirpus juncoides): 2 (Herbicidal ratio of 20% or more and less than 40%)
M (Abutilon theophrasti) herbicidal effect (Abutilon theophrasti): 5 (Herbicidal ratio of 90% or more (almost completely withered))
J (Alopecurus myosuroides) herbicidal effect (Alopecurus myosuroides): 1 (Herbicidal ratio of 5% or more and less than 20%)
L (Apera spica-venti.) herbicidal effect (Apera spica-venti.): 1 (Herbicidal ratio of 5% or more and less than 20%)
I (Avena fatua) herbicidal effect (Avena fatua): 1 (Herbicidal ratio of 5% or more and less than 20%)
O (Chenopodium album) herbicidal effect (Chenopodium album): 5 (Herbicidal ratio of 90% or more (almost completely withered))
F (Digitaria ciliaris) herbicidal effect (Digitaria ciliaris): 4 (Herbicidal ratio of 70% or more and less than 90%)
H (Echinochloa crus-galli var. crus-galli) herbicidal effect [2]: 5 (Herbicidal ratio of 90% or more (almost completely withered))
Q (Galium spurium) herbicidal effect (Galium spurium): 2 (Herbicidal ratio of 20% or more and less than 40%)
K (Lolium multiflorum Lam.) herbicidal effect (Lolium multiflorum Lam.): 1 (Herbicidal ratio of 5% or more and less than 20%)
G (Setaria viridis) herbicidal effect (Setaria viridis): 3 (Herbicidal ratio of 40% or more and less than 70%)
R (Veronica persica) herbicidal effect (Veronica persica): 4 (Herbicidal ratio of 70% or more and less than 90%)

CCCc1nnc2c(C(=O)Nc3nnc(C)o3)ccc(C(F)(F)F)n12 [1-024]
A: Echinochloa oryzicola Vasing. (herbicidal effect grade) [1]: 5 (Herbicidal ratio of 90% or more (almost completely withered))
C: Monochoria vaginalis (herbicidal effect grade) (Monochoria vaginalis): 0 (Herbicidal ratio of 5% or less (almost no effect))
B: Scirpus juncoides (herbicidal effect grade) (Scirpus juncoides): 2 (Herbicidal ratio of 20% or more and less than 40%)
M (Abutilon theophrasti) herbicidal effect (Abutilon theophrasti): 4 (Herbicidal ratio of 70% or more and less than 90%)
J (Alopecurus myosuroides) herbicidal effect (Alopecurus myosuroides): 0 (Herbicidal ratio of 5% or less (almost no effect))
L (Apera spica-venti.) herbicidal effect (Apera spica-venti.): 1 (Herbicidal ratio of 5% or more and less than 20%)
I (Avena fatua) herbicidal effect (Avena fatua): 1 (Herbicidal ratio of 5% or more and less than 20%)
O (Chenopodium album) herbicidal effect (Chenopodium album): 5 (Herbicidal ratio of 90% or more (almost completely withered))
F (Digitaria ciliaris) herbicidal effect (Digitaria ciliaris): 4 (Herbicidal ratio of 70% or more and less than 90%)
H (Echinochloa crus-galli var. crus-galli) herbicidal effect [2]: 4 (Herbicidal ratio of 70% or more and less than 90%)
Q (Galium spurium) herbicidal effect (Galium spurium): 3 (Herbicidal ratio of 40% or more and less than 70%)
K (Lolium multiflorum Lam.) herbicidal effect (Lolium multiflorum Lam.): 0 (Herbicidal ratio of 5% or less (almost no effect))
G (Setaria viridis) herbicidal effect (Setaria viridis): 3 (Herbicidal ratio of 40% or more and less than 70%)
R (Veronica persica) herbicidal effect (Veronica persica): 4 (Herbicidal ratio of 70% or more and less than 90%)

From patent US9708314B2, “Heterocyclic amide compound” (NISSAN CHEMICAL INDUSTRIES, LTD., priority 2013, dated 2017)
